Experimental data taken from patent US20020055470A1, “Circumvention of human tumor drug resistance” (CITY OF HOPE, priority 1987, published 2002).
pEC50: −log10 of the molar value. Where two headings read alike, the source gives them in different places.

Key:
Assay type in all cases: cell-based, human
CEMS = experiment: Cytotoxicity by continuous exposure in CEM cells
Procedure: (§1) There was an increase in DHFR enzyme activity (11.07-fold) due to an eight-fold increase in DHFR gene amplification and expression in CEM/MTX cells. There was also a corresponding 2-fold increase in thymidine kinase (TK) enzyme activity and TK gene expression in CEM/MTX cells. […] CEM cells untreated with nucleoside analog were the controls (100%). The experiment was performed three separate times in duplicate.

K562-VP16 = experiment: Inhibition of cell growth, Table VI
HCF7S = experiment: Inhibition of cell growth, Table VI
HCT8DDP = experiment: Inhibition of cell growth (cells counted on Coulter Counter after six days); settings: for pEC50: HCT8-DDP, read-out: EC50
Procedure: (§2) Table VI includes EC50 data further exemplifying the invention. The data reported by Table VI was obtained by substantially the same procedure as that described with respect to Table III. In Table VI, “(C)” indicates continuous exposure, “(1 h)” and “(2 h)” indicate exposure for 1 hour and 2 hours; “HU” indicates hydroxyurea.

HCT8S = experiment: as above; settings: read-out: EC50
Procedure: as §2

A2780DDP [1] = experiment: Dual labeled (14C/3H) DNA synthesis and degradation in response to cisplatin; incorporation of labelled nucleoside analogs
Excerpt: A dual labeled (^14C/^3H) experiment was designed to measure simultaneously DNA synthesis and degradation in response to cisplatin.

K562-araC = experiment: Inhibition of cell growth, Table VI; settings: K562-araC
Procedure: as §2

HCF-7 DDP = experiment: Inhibition of cell growth, Table VI; settings: for pEC50: HCF-7 DDP
Procedure: as §2

K562S = experiment: Inhibition of cell growth, Table VI
Procedure: as §2

A2780S [2] = experiment: Inhibition of cell growth (cells counted on Coulter Counter after six days)
Procedure: The experiment was conducted in triplicate in the manner described with respect to Table I.
A2780 cells were well-plated (35 mm disnes) and 24 hours later the cells were treated with cisplatin for one hour, washed out and then treated with 6 concentrations of from 1 μM to 100 μM increased in equal increments of a nucleoside analog in saline. Cells were then washed and incubated for six days. The cells were counted on a Coulter Counter and the experiment was done in triplicate.
as §2

CEMMTX = experiment: Cytotoxicity by continuous exposure in CEM cells
Procedure: CEM cells were made 15.8-fold resistant to methotrexate (MTX) by weekly (2 hr) pulses and cloned in soft agar. The optimal growth requirements for the CEMS/S and CEM/MTX for folinic acid cells were 2 nM and 10 nM. If the cells were grown in higher concentrations of folinic acid (10^−7 M), both cell lines were correspondingly more resistant to MTX. In contrast, fluoropyrimidine cytotoxicity was enhanced in both cell lines with increasing concentrations of folinic acid from 10^−7 M to 10^−6 M. At concentrations of folinic acid that are not optimal for cell growth, both CEM cell lines are hypersensitive to fluoropyrimidines. In addition, CEM/MTX cells are more hypersensitive to fluoropyrimidines than CEM/S cells at (10^−8 M) folinic acid or lower concentrations.
as §1

A2780DDP [3] = experiment: Inhibition of cell growth (cells counted on Coulter Counter after six days)
Procedure: The experiment was conducted in triplicate in the manner described with respect to Table I. […]
as §2

CEMDDP = experiment: Cytotoxicity by continuous exposure in CEM cells
K562-DDP = experiment: Inhibition of cell growth, Table VI; settings: K562-DDP
A2780S [4] = experiment: Dual labeled (14C/3H) DNA synthesis and degradation in response to cisplatin
Procedure: (§3) A dual labeled (^14C/^3H) experiment was designed to measure simultaneously DNA synthesis and degradation in response to cisplatin. […] A2780S cells respond to cisplatin with a modest degradation (10%) of (^14C) DNA over 3 hrs. In contrast, A2780DDP degradation 40.5% of the (^14C) DNA in 3 hrs. […] Transplatin at equimolar concentrations (20 μM) had no influence on DNA synthesis or degradation in A2780 cells.

A2780 cells = experiment: Dual labeled (14C/3H) DNA synthesis and degradation; settings: 20 μM
Procedure: as §3

[5] = cisplatin 20 μM, treatment time 0 min
[6] = cisplatin 20 μM, treatment time 45 min
[7] = cisplatin 20 μM, treatment time 90 min
[8] = cisplatin 20 μM, treatment time 180 min

Cc1cn([C@H]2C[C@H](N=[N+]=[N-])[C@@H](CO)O2)c(=O)[nH]c1=O [AZT, 3′ azido-2′, 3′ dideoxythymidine]
cytotoxicity (CEMS; CEM/S cells, continuous exposure up to 160 μM): minimal cytotoxicity
EC50 (CEMS; CEMS, continuous exposure): N.E.**
pEC50 (K562-VP16; (C) continuous exposure): 3.70
pEC50 (HCF7S; (C) continuous exposure): 4.19
pEC50 (HCT8DDP; (C) continuous exposure): 4.96
pEC50 (HCT8S; (C) continuous exposure): 5.26
Incorporation of labelled nucleoside analog into macromolecules (A2780DDP [1]; A2780DDP, 0 min after cisplatin (20 μM) treatment): 26.96
Incorporation of labelled nucleoside analog into macromolecules (A2780DDP [1]; A2780DDP, 45 min after cisplatin (20 μM) treatment): 31.62
Incorporation of labelled nucleoside analog into macromolecules (A2780DDP [1]; A2780DDP, 90 min after cisplatin (20 μM) treatment): 32.31
Incorporation of labelled nucleoside analog into macromolecules (A2780DDP [1]; A2780DDP, 180 min after cisplatin (20 μM) treatment): 37.96
3H-AZT/DNA A2780DDP (A2780DDP [1]; [5]): 26.96
3H-AZT/DNA A2780DDP (A2780DDP [1]; [6]): 31.62
3H-AZT/DNA A2780DDP (A2780DDP [1]; [7]): 32.31
3H-AZT/DNA A2780DDP (A2780DDP [1]; [8]): 37.96
pEC50 (K562-araC; (C) continuous exposure): 4.15
pEC50 (HCF-7 DDP; (C) continuous exposure): 5.00
pEC50 (K562S; (C) continuous exposure): 3.90
pEC50 (A2780S [2]; A2780S, (C) continuous exposure, read-out: EC50): 5.00
pEC50 (A2780S [2]; continuous exposure, proliferation during 6 days, mean + SD, read-out: EC50 A2780S): 5.00
pEC50 (CEMMTX; CEM/MTX cells, continuous exposure (1-160 μM)): 4.60
pEC50 (A2780DDP [3]; A2780 DDP, (C) continuous exposure, read-out: EC50): 3.29
pEC50 (A2780DDP [3]; continuous exposure, proliferation during 6 days, mean + SD, read-out: EC50 A2780DDP): 3.29
EC50 (CEMDDP): N.E.**
pEC50 (K562-DDP; (C) continuous exposure): 3.82
increased incorporation of (3H) AZT into TCA material (A2780S [4]; A2780S, in response to cisplatin 20 μM): 18.8%
3H-AZT/DNA A2780S (A2780S [4]; [5]): 7.79
3H-AZT/DNA A2780S (A2780S [4]; [6]): 6.27
3H-AZT/DNA A2780S (A2780S [4]; [7]): 7.23
3H-AZT/DNA A2780S (A2780S [4]; [8]): 9.25

N.N.[Cl][Pt][Cl] [Cisplatin, cisplatin]
pEC50 (K562-VP16; (1h) exposure): 4.82
pEC50 (HCF7S; (1h) exposure): 4.82
pEC50 (HCT8DDP; (1h) exposure): 4.00
fold resistance, cispt resistant vs sensitive HCT8 cells (HCT8DDP; HCT8 human colon cancer cells): 2.7 fold
pEC50 (HCT8S; (1h) exposure): 4.52
degradation of (14C) DNA (A2780DDP [1]; A2780DDP, cisplatin 20 μM, in 3 hrs): 40.5%
14C-Tdr/DNA A2780DDP (A2780DDP [1]; [5]): 17.78
14C-Tdr/DNA A2780DDP (A2780DDP [1]; [6]): 14.44
14C-Tdr/DNA A2780DDP (A2780DDP [1]; [7]): 12.59
14C-Tdr/DNA A2780DDP (A2780DDP [1]; [8]): 10.57
pEC50 (K562-araC; (1h) exposure): 4.60
pEC50 (HCF-7 DDP; (1h) exposure): 4.46
fold resistance, cispt resistant vs sensitive MCF7 cells (HCF-7 DDP; MCF7 human breast cancer cells): 2.3 fold
pEC50 (K562S; (1h) exposure): 5.22
pEC50 (A2780S [2]; A2780S, (1h) exposure, read-out: EC50): 5.15
pEC50 (A2780S [2]; treatment time 1 hr, proliferation during 6 days, mean + SD, read-out: EC50 A2780S): 5.15
Ratio (degree of resistance or cross-resistance) (A2780DDP [3]; A2780DDP vs A2780S EC50, treatment time 1 hr): +12.8
pEC50 (A2780DDP [3]; A2780 DDP, (1h) exposure, read-out: EC50): 4.05
fold resistance, cisplatin resistant vs sensitive A2780 cells (A2780DDP [3]; A2780 ovarian carcinoma cells): > 12 fold
pEC50 (A2780DDP [3]; treatment time 1 hr, proliferation during 6 days, mean + SD, read-out: EC50 A2780DDP): 4.05
pEC50 (K562-DDP; (1h) exposure): 4.82
degradation of (14C) DNA (A2780S [4]; A2780S, cisplatin 20 μM, over 3 hrs): 10%
14C-Tdr/DNA A2780S (A2780S [4]; [5]): 6.49
14C-Tdr/DNA A2780S (A2780S [4]; [6]): 6.21
14C-Tdr/DNA A2780S (A2780S [4]; [7]): 5.71
14C-Tdr/DNA A2780S (A2780S [4]; [8]): 6.06

N.N.[Cl][Pt+2][Cl] [Transplatin]
influence on DNA synthesis or degradation (A2780 cells): no influence

CN(Cc1cnc2nc(N)nc(N)c2n1)c1ccc(C(=O)N[C@@H](CCC(=O)O)C(=O)O)cc1 [methotrexate]
fold resistance of CEM/MTX cells (CEMMTX; CEM cells made resistant by weekly (2 hr) pulses): 15.8 fold
